Results on eight substances are retold here after PMC6751662, “Pharmacological and functional similarities of the human neuropeptide Y system in C. elegans challenges phylogenetic views on the FLP/NPR system” (Cell Communication and Signaling : CCS, 2019).

One assay has as its target T1, NPR-4b (Caenorhabditis elegans, UniProt A0A078BTK0).
T1 sequence (A0A078BTK0 1-376): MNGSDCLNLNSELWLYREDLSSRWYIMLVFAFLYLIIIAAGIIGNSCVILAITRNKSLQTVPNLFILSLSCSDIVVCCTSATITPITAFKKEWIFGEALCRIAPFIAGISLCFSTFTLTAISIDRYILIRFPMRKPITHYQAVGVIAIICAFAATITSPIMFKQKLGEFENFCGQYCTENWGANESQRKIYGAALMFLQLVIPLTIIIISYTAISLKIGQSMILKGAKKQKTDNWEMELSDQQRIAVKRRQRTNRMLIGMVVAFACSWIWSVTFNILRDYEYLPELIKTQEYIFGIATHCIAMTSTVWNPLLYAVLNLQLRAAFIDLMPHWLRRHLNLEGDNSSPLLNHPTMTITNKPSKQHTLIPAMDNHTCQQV
Nature of the assay: IP accumulation assay, chimeric GαΔ6qi4myr, NPR-4b. It counts as cell-based, C. elegans. Conditions: 1 h, HBSS + 20 mM LiCl, HEK293 receptor + GαΔ6qi4myr, HTRF IP-One. The method, then: (§1) For measuring IP accumulation, HEK293 cells grown to 70–80% confluency in 6-well plates were transiently co-transfected using Metafectene Pro (2.5 μl/μg DNA; Biontex) with plasmids containing receptor and/or mock (empty pcDNA3.1) (for endogenous Gq-coupling) using 4 μg total DNA in a ratio of 3:1 following the manufacturer’s instructions. For testing Gα16- and GαΔ6qi4myr-coupling, plasmids encoding the corresponding Gα protein were co-transfected instead of mock. Gα16 is naturally promiscuous and stimulates the phospholipase C (PLC) pathway leading to IP production, while the exchange of the C-terminal four amino acids of Gαq for the corresponding residues of Gαi1 in the chimeric GαΔ6qi4myr confers the ability to couple to Gi/o protein-preferring receptors but still stimulate PLC, thus specifically redirecting downstream cellular signaling. 16 h post transfection, the cells were seeded into white 384-well plates at a density of 20,000 cells/well. Media was removed 24 h later and the cells were incubated with the indicated concentration of peptides for 1 h in HBSS + 20 mM LiCl. IP accumulation was measured with the HTRF-based IP-One Gq kit (Cisbio) on a microplate reader (Tecan Spark).
(§2) For in vitro activation, data is presented as mean ± SEM of at least three independent experiments conducted in technical triplicate. […] For the C. elegans NPRs, we considered the strongest response elicited by any of the peptides downstream of a particular receptor as the receptor’s maximal signal. This may or may not be the biological maximum that can be reached by the ‘true’ endogenous agonist. For the human receptors, the response to the established endogenous agonist reflected the maximal signal.

In a further assay the target is T2, NPR-5b (Caenorhabditis elegans, UniProt Q6F3C9).
T2 sequence (Q6F3C9 1-433): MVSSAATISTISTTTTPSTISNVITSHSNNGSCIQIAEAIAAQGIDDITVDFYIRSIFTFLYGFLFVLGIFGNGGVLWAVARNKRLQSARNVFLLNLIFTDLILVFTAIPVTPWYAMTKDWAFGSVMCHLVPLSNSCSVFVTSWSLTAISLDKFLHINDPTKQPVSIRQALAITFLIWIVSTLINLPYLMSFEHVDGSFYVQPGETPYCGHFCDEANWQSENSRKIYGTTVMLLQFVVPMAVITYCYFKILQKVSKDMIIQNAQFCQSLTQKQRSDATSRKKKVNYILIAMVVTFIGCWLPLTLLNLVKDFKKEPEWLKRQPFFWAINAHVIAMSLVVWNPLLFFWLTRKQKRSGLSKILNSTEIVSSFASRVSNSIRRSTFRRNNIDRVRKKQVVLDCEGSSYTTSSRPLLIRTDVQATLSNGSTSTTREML
Nature of the assay: IP accumulation assay (Table S8), NPR-5b. Conditions: 1 h, HBSS + 20 mM LiCl, transfected HEK293, Table S8 (title: chimeric GαΔ6qi4myr), HTRF IP-One, mean of >=3 independent experiments. Type of assay: cell-based, C. elegans. The method, then: as §1, §2

For a further assay, the system named is NPR-6. Description: IP accumulation assay, chimeric GαΔ6qi4myr, NPR-6. Type of assay: cell-based, C. elegans. Conditions: 1 h, HBSS + 20 mM LiCl, HEK293 receptor + GαΔ6qi4myr, HTRF IP-One. The method, then:
as §1, §2

The target in the next assay is T3, Y5R (Homo sapiens, UniProt Q15761).
T3 construct: expressed in transfected cells; host or cells: HEK293, transient
T3 sequence (Q15761 1-445): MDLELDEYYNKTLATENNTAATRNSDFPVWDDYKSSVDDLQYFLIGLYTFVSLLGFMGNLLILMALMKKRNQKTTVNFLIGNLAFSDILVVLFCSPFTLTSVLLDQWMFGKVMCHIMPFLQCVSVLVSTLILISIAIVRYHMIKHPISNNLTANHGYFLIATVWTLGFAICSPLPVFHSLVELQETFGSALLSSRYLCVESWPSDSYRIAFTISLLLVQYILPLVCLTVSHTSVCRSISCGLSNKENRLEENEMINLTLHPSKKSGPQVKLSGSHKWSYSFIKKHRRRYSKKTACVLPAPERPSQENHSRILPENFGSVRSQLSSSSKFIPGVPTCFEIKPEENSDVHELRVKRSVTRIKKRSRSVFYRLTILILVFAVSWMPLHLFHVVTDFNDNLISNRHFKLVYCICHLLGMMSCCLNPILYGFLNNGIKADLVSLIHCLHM
Description: cAMP reporter gene assay, Gi/o, Y5R. Type of assay: cell-based. Conditions: for cAMP assay (Gi/o), Y5R: 4 h, lower = higher Gi/o activity, transfected HEK293, CRE-luciferase, mean of >=3 independent experiments; for Gi (Gs) [x-fold of forskolin], Y5R, mean: inhibition of cAMP production induced by 1 µM forskolin (set to 1.00), transiently transfected HEK293 cells, mean of at least three independent experiments. The method, then:
(§3) Activation of Gs and Gi/o was assessed with a cAMP reporter gene assay. HEK293 cells grown to 70–80% confluency in 6-well plates were transiently co-transfected with vectors encoding the receptor and the cAMP reporter gene plasmid pGL4.29 [luc2P/CRE/Hygro] (Promega; 4 μg total, 1:1 ratio) using Metafectene Pro (3 μl/μg DNA; Biontex) following the manufacturer’s instructions. 16 h post transfection, the cells were seeded into white 384-well plates at a density of 20,000 cells/well. On the next day, the medium was removed and the cells were stimulated with 20 μl of peptide solution (or forskolin as positive control) in serum-free DMEM for 4 h. For measuring Gi/o activity, the peptide solutions additionally contained 1 μM forskolin to elevate cellular cAMP levels. After incubation, the luciferase substrate OneGlo in lysis buffer (Promega) was added and the luminescence was measured in a microplate reader Tecan Spark (Tecan). Data were analyzed with GraphPad Prism 5.03 and are shown as fold of basal or fold of forskolin in case of Gαi/o activity.
as §2
A general note: In a reporter assay the amount or activity of a reporter protein is the signal.

A further assay deals with T4, NPFF2R (Homo sapiens, UniProt Q9Y5X5).
T4 construct: expressed in transfected cells; host or cells: HEK293, transient
T4 sequence (Q9Y5X5 103-522): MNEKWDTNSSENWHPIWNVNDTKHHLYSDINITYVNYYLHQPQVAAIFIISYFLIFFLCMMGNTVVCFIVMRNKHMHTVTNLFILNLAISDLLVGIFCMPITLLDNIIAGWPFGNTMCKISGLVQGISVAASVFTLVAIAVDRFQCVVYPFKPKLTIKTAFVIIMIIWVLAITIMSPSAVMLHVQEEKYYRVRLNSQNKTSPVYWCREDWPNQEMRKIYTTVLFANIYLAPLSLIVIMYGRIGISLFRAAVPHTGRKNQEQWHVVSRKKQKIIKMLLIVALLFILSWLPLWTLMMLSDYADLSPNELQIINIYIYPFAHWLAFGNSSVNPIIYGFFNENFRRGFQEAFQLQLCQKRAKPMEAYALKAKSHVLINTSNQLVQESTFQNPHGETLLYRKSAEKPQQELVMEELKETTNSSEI
Nature of the assay: cAMP reporter gene assay, Gi/o, NPFF2R. Conditions: for cAMP assay (Gi/o), NPFF2R: 4 h, lower = higher Gi/o activity, transfected HEK293, CRE-luciferase, mean of >=3 independent experiments; for Gi (Gs) [x-fold of forskolin], NPFF2R, mean: inhibition of cAMP production induced by 1 µM forskolin (set to 1.00), transiently transfected HEK293 cells, mean of at least three independent experiments. Type of assay: cell-based. The method, then:
as §3, §2

[1] abbreviates: 0.1 µM peptide (Table S8), mean of >=3 independent experiments.
Setting [2] is: 10 µM peptide, mean of >=3 independent experiments (Tables S5 and S8).
Where [3] appears, read: 0.1 nM peptide (Table S5), mean of >=3 independent experiments.
Setting [4] is: 0.1 µM peptide + 1 µM forskolin (set to 1.00).
[5] abbreviates: 10 µM peptide + 1 µM forskolin (set to 1.00).

On to “AGSDPNFLRF-NH2 [FLP-1-2, C. elegans FMRFamide-like peptide, C-terminally amidated, synthesized by SPPS]”, for which the entries for the “IP accumulation with GαΔ6qi4myr, NPR-4b” value at NPR-4b (setting [1]) and on NPR-4b (setting [2]) were 2.48 x-fold of basal and 8.55 x-fold of basal, respectively. Further, the “IP accumulation, NPR-5b” value at NPR-5b (0.1 µM peptide) is 0.99 x-fold of basal; on NPR-5b (10 µM peptide) it was 1.80 x-fold of basal. Further, the “IP accumulation with GαΔ6qi4myr, NPR-6” value in the assay on NPR-6 (setting [1]) is 1.14 x-fold of basal; in the assay with NPR-6 (setting [2]), 5.19 x-fold of basal.

“APKPKFIRF-NH2 [FLP-5-1, C. elegans FMRFamide-like peptide, C-terminally amidated, synthesized by SPPS]”: the “IP assay endog. Gαq + GαΔ6qi4myr, NPR-4b” value at NPR-4b (setting [3]) was 2.00 x-fold of basal. The “IP accumulation with GαΔ6qi4myr, NPR-4b” value on NPR-4b (setting [1]) was 2.00 x-fold of basal; at NPR-4b (setting [2]), 5.53 x-fold of basal. In addition, the “IP accumulation, NPR-5b” value is on record as 0.91 x-fold of basal at NPR-5b (0.1 µM peptide) and 1.45 x-fold of basal at NPR-5b (10 µM peptide). For the same substance, the “IP assay endog. Gαq + GαΔ6qi4myr, NPR-6” value with NPR-6 (setting [3]) is reported as 0.96 x-fold of basal. Besides, the “IP accumulation with GαΔ6qi4myr, NPR-6” value in the assay on NPR-6 (setting [1]) is reported as 0.96 x-fold of basal; with NPR-6 (setting [2]), 0.98 x-fold of basal.

For the substance “APLEGFEDMSGFLRTIDGIQKPRF-NH2 [FLP-33, NPY-like C. elegans FLP with C-terminal RxRF/Ya signature]”, the entries for the “cAMP assay (Gi/o), Y5R” value at Y5R (setting [4]) and at Y5R (setting [5]) were 0.94 x-fold of forskolin and 0.99 x-fold of forskolin, respectively. For the same substance, the “cAMP assay (Gi/o), NPFF2R” value was 0.82 x-fold of forskolin on NPFF2R (setting [4]) and 0.16 x-fold of forskolin on NPFF2R (setting [5]).

“ASPSFIRF-NH2 [FLP-4-2, C. elegans FMRFamide-like peptide, C-terminally amidated, synthesized by SPPS]”: the figures for the “IP accumulation with GαΔ6qi4myr, NPR-4b” value at NPR-4b (setting [1]) and at NPR-4b (setting [2]) were 4.71 x-fold of basal and 12.66 x-fold of basal, respectively. Besides, the figures for the “IP accumulation, NPR-5b” value at NPR-5b (0.1 µM peptide) and at NPR-5b (10 µM peptide) were 0.90 x-fold of basal and 1.98 x-fold of basal, respectively. Also, the “IP accumulation with GαΔ6qi4myr, NPR-6” value in the assay with NPR-6 (setting [1]) is listed as 0.96 x-fold of basal; with NPR-6 (setting [2]), 1.19 x-fold of basal.

As for “EASAFGDIIGELKGKGLGGRMRF-NH2 [FLP-27, NPY-like C. elegans FLP with C-terminal RxRF/Ya signature]”, the results for the “cAMP assay (Gi/o), Y5R” value on Y5R (setting [4]) and at Y5R (setting [5]) were 1.07 x-fold of forskolin and 0.96 x-fold of forskolin, respectively. Moreover, the “cAMP assay (Gi/o), NPFF2R” value is listed as 0.66 x-fold of forskolin on NPFF2R (setting [4]) and 0.18 x-fold of forskolin at NPFF2R (setting [5]).

In the case of “GLGPRPLAF-NH2 [[R8A]FLP-21, R8A control peptide of FLP-21, penultimate arginine exchanged for an alanine]”, the entries for the “Gi (Gs) [x-fold of forskolin], Y5R, mean” value on Y5R (0.1 µM peptide) and at Y5R (10 µM peptide) were 0.84 x-fold of forskolin and 0.87 x-fold of forskolin, respectively. Moreover, the “Gi (Gs) [x-fold of forskolin], NPFF2R, mean” value on NPFF2R (0.1 µM peptide) was 0.88 x-fold of forskolin; on NPFF2R (10 µM peptide), 0.60 x-fold of forskolin.

On to “NPENDTPFGTMRF-NH2 [FLP-3-4, C. elegans FMRFamide-like peptide, C-terminally amidated, synthesized by SPPS]”, for which the “IP accumulation with GαΔ6qi4myr, NPR-4b” value is 4.77 x-fold of basal on NPR-4b (setting [1]) and 11.46 x-fold of basal at NPR-4b (setting [2]). The “IP accumulation, NPR-5b” value is on record as 1.19 x-fold of basal at NPR-5b (0.1 µM peptide) and 8.18 x-fold of basal at NPR-5b (10 µM peptide). Moreover, the entries for the “IP accumulation with GαΔ6qi4myr, NPR-6” value in the assay on NPR-6 (setting [1]) and in the assay on NPR-6 (setting [2]) were 1.04 x-fold of basal and 5.43 x-fold of basal, respectively.

On to RGPSGPLAF-NH2 [[R8A]FLP-15-2], for which the “Gi (Gs) [x-fold of forskolin], Y5R, mean” value is given as 0.89 x-fold of forskolin on Y5R (0.1 µM peptide) and 0.91 x-fold of forskolin at Y5R (10 µM peptide). Also, the “Gi (Gs) [x-fold of forskolin], NPFF2R, mean” value on NPFF2R (0.1 µM peptide) is 0.94 x-fold of forskolin; on NPFF2R (10 µM peptide) it was 0.97 x-fold of forskolin.
